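Each compound was tested at five concentrations against cells in 96-well plates for 48 hours. GI50 = concentration required for 50% inhibition of growth.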 Active and inactive are the calls of the source. No stated cut-off is given here; in the data, active = GI50 up to about 1.1 µM and inactive = higher.
Assays:
Assay in all cases: NCI tumour cell line growth inhibition, 48 h
NCI-H522 = test system: NCI-H522
MDA-N = test system: MDA-N
MDA-MB-231 = test system: MDA-MB-231
TK-10 = test system: TK-10
SN12C = test system: SN12C
ACHN = test system: ACHN
CAKI-1 = test system: CAKI-1
HOP-92 = test system: HOP-92
MCF7 = test system: MCF7
HCC 2998 = test system: HCC 2998
RXF 393 = test system: RXF 393
PC-3 = test system: PC-3
SK-OV-3 = test system: SK-OV-3
SW-620 = test system: SW-620
UO-31 = test system: UO-31
OVCAR-5 = test system: OVCAR-5
KM12 = test system: KM12
SK-MEL-28 = test system: SK-MEL-28
NCI/ADR-RES = test system: NCI/ADR-RES
SF-539 = test system: SF-539

Measured: GI50

CN(C)c1n2c3cc([N+](=O)[O-])ccc3[n+]3c(N(C)C)n4ccccc4c3c2c2cccc[n+]12.[O-][Cl+3]([O-])([O-])[O-].[O-][Cl+3]([O-])([O-])[O-]
inactive: NCI-H522 34.9 µM | MDA-N > 100 µM | MDA-MB-231 > 100 µM | TK-10 > 100 µM | SN12C 38.9 µM | ACHN > 100 µM | CAKI-1 > 100 µM | HOP-92 > 100 µM | MCF7 8.57 µM | HCC 2998 > 100 µM | RXF 393 > 100 µM | PC-3 > 100 µM | SK-OV-3 > 100 µM | SW-620 > 100 µM | UO-31 > 100 µM | OVCAR-5 > 100 µM | KM12 > 100 µM | SK-MEL-28 > 100 µM | NCI/ADR-RES > 100 µM

N=C(N)NS(=O)(=O)c1ccc(NCc2cccc3c(=O)c4ccc(Cl)cc4oc23)cc1
inactive: SF-539 6.11 µM | MDA-N 5.27 µM | MDA-MB-231 > 10.8 µM | TK-10 > 10.4 µM | SN12C > 9.27 µM | ACHN 7.6 µM | CAKI-1 8.53 µM | HOP-92 3.86 µM | MCF7 7.45 µM | HCC 2998 > 15.3 µM | RXF 393 3.08 µM | PC-3 1.4 µM | SK-OV-3 > 10.3 µM | SW-620 5.41 µM | UO-31 5.41 µM | OVCAR-5 > 10.1 µM | KM12 3.25 µM | SK-MEL-28 > 12.2 µM | NCI/ADR-RES 7.8 µM

COc1cc2nc(-c3ccc4ccccc4c3)nc(O)c2cc1OC
inactive: NCI-H522 56.1 µM | MDA-N > 100 µM | MDA-MB-231 > 100 µM | SN12C > 100 µM | ACHN 48.8 µM | CAKI-1 > 100 µM | HOP-92 37.5 µM | MCF7 > 100 µM | HCC 2998 > 100 µM | RXF 393 41.7 µM | PC-3 > 100 µM | SK-OV-3 > 100 µM | UO-31 > 100 µM | OVCAR-5 > 100 µM | KM12 > 100 µM | NCI/ADR-RES 69.5 µM

O=C1Nc2c(Cl)cc(Cl)cc2/C1=N/N=C/c1ccccc1O
inactive: SF-539 20.6 µM | MDA-N 17.4 µM | MDA-MB-231 19.8 µM | TK-10 36.8 µM | SN12C 18.3 µM | ACHN 29.2 µM | CAKI-1 19.4 µM | HOP-92 27.1 µM | MCF7 30 µM | HCC 2998 17.9 µM | RXF 393 21.2 µM | PC-3 19.5 µM | SK-OV-3 30.6 µM | SW-620 22 µM | UO-31 27.6 µM | OVCAR-5 21.5 µM | KM12 26.4 µM | SK-MEL-28 20.1 µM | NCI/ADR-RES 19.5 µM

CC(=O)Nc1nc(Cl)cc(NCC2(CO)CCC2)n1
inactive: NCI-H522 > 100 µM | MDA-N > 100 µM | MDA-MB-231 > 100 µM | SN12C > 100 µM | ACHN > 100 µM | CAKI-1 > 100 µM | HOP-92 > 100 µM | MCF7 > 100 µM | HCC 2998 > 100 µM | RXF 393 > 100 µM | PC-3 > 100 µM | SK-OV-3 > 100 µM | SW-620 > 100 µM | UO-31 > 100 µM | OVCAR-5 > 100 µM | KM12 > 100 µM | SK-MEL-28 > 100 µM | NCI/ADR-RES > 100 µM

CN(c1cn(C2CC[C@@H](CO)O2)c(=O)[nH]c1=O)C1CCCCC1 (stereo partly specified)
inactive: SF-539 > 100 µM | NCI-H522 > 100 µM | MDA-N > 100 µM | MDA-MB-231 > 100 µM | TK-10 > 100 µM | SN12C > 100 µM | ACHN > 100 µM | HOP-92 > 100 µM | MCF7 > 100 µM | HCC 2998 > 100 µM | RXF 393 > 100 µM | PC-3 > 100 µM | SK-OV-3 > 100 µM | SW-620 > 100 µM | UO-31 > 100 µM | OVCAR-5 > 100 µM | KM12 > 100 µM | SK-MEL-28 > 100 µM | NCI/ADR-RES > 100 µM

C/C(=N\NC(N)=O)C(CN1CCOCC1)C(c1ccccc1)c1c(O)c2ccccc2oc1=O (stereo unspecified)
inactive: SF-539 > 100 µM | NCI-H522 > 100 µM | MDA-N > 100 µM | MDA-MB-231 > 100 µM | TK-10 > 100 µM | ACHN > 100 µM | CAKI-1 > 100 µM | HOP-92 > 100 µM | MCF7 > 100 µM | HCC 2998 > 100 µM | PC-3 > 100 µM | SK-OV-3 > 100 µM | SW-620 > 100 µM | UO-31 > 100 µM | OVCAR-5 > 100 µM | KM12 > 100 µM | SK-MEL-28 > 100 µM | NCI/ADR-RES > 100 µM

Cc1ccc(C(=O)/C=C2\Nc3ccccc3S\C2=N\CS(=O)(=O)c2ccc(C)cc2)cc1
inactive: SF-539 > 10 µM | NCI-H522 5.38 µM | MDA-N > 10 µM | MDA-MB-231 > 10 µM | TK-10 > 10 µM | SN12C > 10 µM | ACHN > 10 µM | CAKI-1 > 10 µM | HOP-92 > 10 µM | MCF7 4.3 µM | HCC 2998 > 10 µM | PC-3 > 10 µM | SK-OV-3 6.89 µM | SW-620 > 10 µM | OVCAR-5 > 10 µM | KM12 > 10 µM | SK-MEL-28 > 10 µM | NCI/ADR-RES > 10 µM

Source: ChEMBL document CHEMBL1201862, “PubChem BioAssay data set” (2004)
